Laboratory results published in ChEMBL document CHEMBL1201862, “PubChem BioAssay data set” (2004).
Blank lines part the entries; values can stand above or below the compound they belong to. The source made the active and inactive calls.

Key:
Paired box protein Pax-8 = Paired box protein Pax-8 (Homo sapiens, UniProt Q06710); assay: PAX8 transcriptional activity inhibition in RMG-I – RMG-I cells, luciferase, cherry-pick, dose response (AID 687027); type: functional, cell-based;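 note: luciferase reporter driven by Pax8 target thyroperoxidase promoter measured by SteadyGlo luminescence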
Sequence of Paired box protein Pax-8 (Q06710 whole entry): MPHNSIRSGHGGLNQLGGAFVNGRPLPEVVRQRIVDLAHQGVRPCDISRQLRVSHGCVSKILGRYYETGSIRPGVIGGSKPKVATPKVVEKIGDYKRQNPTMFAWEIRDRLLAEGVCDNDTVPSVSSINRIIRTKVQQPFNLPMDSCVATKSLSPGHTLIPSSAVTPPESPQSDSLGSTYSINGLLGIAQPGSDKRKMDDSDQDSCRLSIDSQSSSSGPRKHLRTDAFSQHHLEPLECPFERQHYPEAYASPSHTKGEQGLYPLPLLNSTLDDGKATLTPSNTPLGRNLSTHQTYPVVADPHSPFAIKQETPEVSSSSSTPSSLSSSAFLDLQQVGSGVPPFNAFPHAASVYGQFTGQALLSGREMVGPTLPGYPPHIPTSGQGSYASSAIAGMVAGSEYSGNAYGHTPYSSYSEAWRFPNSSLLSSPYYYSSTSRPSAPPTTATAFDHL

[1] = toxicity toward immortalized ovarian surface epithelium – cell-based, plate reader, dry powder samples, cytotoxicity control for PAX8 inhibitor project, dose response (AID 743045); type: functional
[2] = OVCAR-3 cell viability loss – plate reader, dry powder samples, PAX8 inhibitor project, dose response (AID 743044); type: functional, cell-based
[3] = OVCAR8 cell viability loss – plate reader, dry powder samples, PAX8 project, dose response (AID 743197); type: functional, cell-based; settings: OVCAR-8
Estrogen receptor = biological target: T1, Estrogen receptor (Homo sapiens, UniProt P03372);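 note: potency for inhibiting coactivator peptide recruitment to the receptor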
T1 sequence (P03372 whole entry): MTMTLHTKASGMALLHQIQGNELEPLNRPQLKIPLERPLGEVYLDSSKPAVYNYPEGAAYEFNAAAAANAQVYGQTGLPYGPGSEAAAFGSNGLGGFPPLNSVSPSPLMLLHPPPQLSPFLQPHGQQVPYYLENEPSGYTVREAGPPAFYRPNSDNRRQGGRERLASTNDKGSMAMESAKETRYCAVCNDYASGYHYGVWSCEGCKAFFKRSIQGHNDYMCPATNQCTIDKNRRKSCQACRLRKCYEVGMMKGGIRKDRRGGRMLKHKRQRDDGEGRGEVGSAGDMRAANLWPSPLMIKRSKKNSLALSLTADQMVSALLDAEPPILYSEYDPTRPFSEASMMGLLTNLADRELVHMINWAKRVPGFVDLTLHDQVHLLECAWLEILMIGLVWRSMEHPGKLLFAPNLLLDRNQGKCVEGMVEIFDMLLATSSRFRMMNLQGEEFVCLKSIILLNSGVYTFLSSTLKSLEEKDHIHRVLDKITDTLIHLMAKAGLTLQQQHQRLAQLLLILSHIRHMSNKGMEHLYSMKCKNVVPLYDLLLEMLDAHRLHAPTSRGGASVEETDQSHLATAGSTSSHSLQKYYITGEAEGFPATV

fMet-Leu-Phe receptor = biological target: T2, fMet-Leu-Phe receptor (Homo sapiens, UniProt P21462); assay: formyl peptide receptor binders – dose response (AID 519); type: functional
T2 sequence (P21462 whole entry): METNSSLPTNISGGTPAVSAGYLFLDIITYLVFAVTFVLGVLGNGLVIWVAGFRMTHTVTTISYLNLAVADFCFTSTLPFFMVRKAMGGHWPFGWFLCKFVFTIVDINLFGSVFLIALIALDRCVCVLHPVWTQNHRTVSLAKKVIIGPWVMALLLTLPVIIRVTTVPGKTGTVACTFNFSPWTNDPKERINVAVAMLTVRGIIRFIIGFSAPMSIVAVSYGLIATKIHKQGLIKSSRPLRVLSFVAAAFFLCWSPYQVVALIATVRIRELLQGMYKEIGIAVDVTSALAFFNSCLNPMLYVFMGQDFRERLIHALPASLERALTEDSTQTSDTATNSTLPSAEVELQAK

[4] = Trypanosoma cruzi growth suppression in host cells – NIH3T3 host cells, beta-gal luminescence, confirmation (AID 2044); type: functional, cell-based;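 note: intracellular parasites grown in NIH/3T3 mouse fibroblasts as host cells; luminescent beta-galactosidase reporter signal from transgenic T. cruzi replicating inside host cells; inhibitors lower the luminescence signal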
[5] = NIH3T3 cell viability loss – ATP luminescence, mouse fibroblasts, counter-screen, dose response (AID 2010); type: functional, cell-based;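 note: cells exposed to compound for about 90 hours before reading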
[6] = RKO cell viability reduction, dose response, CellTiter-Glo luminescence (AID 1117322); type: functional
[7] = cytotoxicity toward HCT116 cells – cell-based, CellTiter-Glo luminescence, IC50, dose response (AID 1117332); type: functional; settings: HCT-116
[8] = SNU-C1 cell viability reduction, dose response, CellTiter-Glo luminescence (AID 1117323); type: functional, cell-based
[9] = cytotoxicity toward Colo320 cells – cell-based, CellTiter-Glo luminescence, IC50, dose response (AID 1117334); type: functional; settings: COLO 320
[10] = Reduced DLD-1 viability, concentration-response, CellTiter-Glo luminescence (AID 1117352); type: functional
[11] = HCT116 cell viability decrease, GSK3B pretreatment – CellTiter-Glo, IC50, dose response (AID 1117339); type: functional; settings: HCT-116
Cytochrome P450 3A4 = Cytochrome P450 3A4 (Homo sapiens, UniProt P08684); settings: Potency;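 note: confirmatory qHTS run detecting inhibitors and substrates of CYP3A4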
Sequence of Cytochrome P450 3A4 (P08684 whole entry): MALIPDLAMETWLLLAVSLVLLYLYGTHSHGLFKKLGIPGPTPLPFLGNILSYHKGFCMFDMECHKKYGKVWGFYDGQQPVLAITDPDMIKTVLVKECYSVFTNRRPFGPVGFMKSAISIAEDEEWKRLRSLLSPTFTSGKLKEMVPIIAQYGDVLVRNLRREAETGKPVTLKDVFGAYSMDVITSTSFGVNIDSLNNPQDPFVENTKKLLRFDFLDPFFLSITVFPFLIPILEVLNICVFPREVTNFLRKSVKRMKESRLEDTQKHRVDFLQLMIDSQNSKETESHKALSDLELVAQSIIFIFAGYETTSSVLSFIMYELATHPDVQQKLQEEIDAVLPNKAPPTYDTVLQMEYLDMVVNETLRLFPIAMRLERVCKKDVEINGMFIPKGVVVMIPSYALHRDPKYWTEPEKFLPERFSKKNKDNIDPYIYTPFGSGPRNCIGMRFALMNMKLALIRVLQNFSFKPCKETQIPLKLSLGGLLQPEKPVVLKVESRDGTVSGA

[12] = biological target: T3, Calpain-2 catalytic subunit (Sus scrofa, UniProt P43367); assay: m-calpain protease blockers, concentration series – biochemical, fluorogenic peptide substrate, dose response (AID 1420); type: functional
T3 sequence (P43367 whole entry): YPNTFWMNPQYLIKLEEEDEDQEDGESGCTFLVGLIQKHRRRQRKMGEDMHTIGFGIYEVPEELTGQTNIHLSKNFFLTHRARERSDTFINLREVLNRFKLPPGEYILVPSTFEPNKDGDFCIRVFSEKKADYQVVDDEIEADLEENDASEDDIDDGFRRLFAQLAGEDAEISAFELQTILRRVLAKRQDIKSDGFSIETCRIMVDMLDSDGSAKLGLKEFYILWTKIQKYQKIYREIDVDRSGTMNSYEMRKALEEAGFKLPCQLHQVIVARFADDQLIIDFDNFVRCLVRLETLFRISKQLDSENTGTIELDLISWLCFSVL

[13] = biological target: T4, Corticotropin-releasing factor receptor 2/Corticotropin-releasing factor-binding protein (Homo sapiens, UniProt P24387+Q13324); assay: Dose Response confirmation of uHTS hits for small molecule antagonists of the CRF-binding protein and CRF-R2 receptor complex.; type: functional; settings: read-out: IC50_Mean
T4 sequence (Q13324 whole entry): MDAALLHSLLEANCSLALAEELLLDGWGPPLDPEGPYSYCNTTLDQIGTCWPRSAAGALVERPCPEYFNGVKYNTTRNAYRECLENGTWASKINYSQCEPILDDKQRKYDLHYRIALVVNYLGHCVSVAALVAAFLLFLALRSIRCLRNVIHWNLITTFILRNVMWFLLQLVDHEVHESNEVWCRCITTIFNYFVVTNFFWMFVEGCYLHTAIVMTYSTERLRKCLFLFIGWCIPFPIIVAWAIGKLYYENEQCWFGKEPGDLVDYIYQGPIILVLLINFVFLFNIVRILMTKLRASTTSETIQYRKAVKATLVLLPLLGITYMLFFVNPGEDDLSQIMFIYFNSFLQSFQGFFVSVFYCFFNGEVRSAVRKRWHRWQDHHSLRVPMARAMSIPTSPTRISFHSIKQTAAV
T4 sequence (P24387 whole entry): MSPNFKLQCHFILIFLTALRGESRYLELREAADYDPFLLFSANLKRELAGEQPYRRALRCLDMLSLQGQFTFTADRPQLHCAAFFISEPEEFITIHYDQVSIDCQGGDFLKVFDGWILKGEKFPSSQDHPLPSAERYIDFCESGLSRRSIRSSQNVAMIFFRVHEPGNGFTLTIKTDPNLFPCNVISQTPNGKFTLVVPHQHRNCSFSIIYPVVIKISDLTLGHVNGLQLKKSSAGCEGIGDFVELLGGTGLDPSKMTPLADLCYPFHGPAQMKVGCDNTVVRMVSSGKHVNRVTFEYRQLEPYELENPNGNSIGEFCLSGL

[14] = biological target: T4, Corticotropin-releasing factor receptor 2/Corticotropin-releasing factor-binding protein; assay: activators of CRF receptor 2 with binding protein – uHTS hits, confirmation (AID 602473); type: functional; settings: read-out: EC50_Mean
[15] = blockers of CRF-binding protein–CRF-R2 complex – cell-based, uHTS hits, 384-well, dose response (AID 651639); type: functional, Homo sapiens; settings: read-out: IC50_Mean
[16] = biological target: Disintegrin and metalloproteinase domain-containing protein 17 (Homo sapiens, UniProt P78536); assay: exosite inhibitors of ADAM17, dose response, biochemical (AID 743260)
Sequence of Disintegrin and metalloproteinase domain-containing protein 17 (P78536 whole entry, the tested form may be a part): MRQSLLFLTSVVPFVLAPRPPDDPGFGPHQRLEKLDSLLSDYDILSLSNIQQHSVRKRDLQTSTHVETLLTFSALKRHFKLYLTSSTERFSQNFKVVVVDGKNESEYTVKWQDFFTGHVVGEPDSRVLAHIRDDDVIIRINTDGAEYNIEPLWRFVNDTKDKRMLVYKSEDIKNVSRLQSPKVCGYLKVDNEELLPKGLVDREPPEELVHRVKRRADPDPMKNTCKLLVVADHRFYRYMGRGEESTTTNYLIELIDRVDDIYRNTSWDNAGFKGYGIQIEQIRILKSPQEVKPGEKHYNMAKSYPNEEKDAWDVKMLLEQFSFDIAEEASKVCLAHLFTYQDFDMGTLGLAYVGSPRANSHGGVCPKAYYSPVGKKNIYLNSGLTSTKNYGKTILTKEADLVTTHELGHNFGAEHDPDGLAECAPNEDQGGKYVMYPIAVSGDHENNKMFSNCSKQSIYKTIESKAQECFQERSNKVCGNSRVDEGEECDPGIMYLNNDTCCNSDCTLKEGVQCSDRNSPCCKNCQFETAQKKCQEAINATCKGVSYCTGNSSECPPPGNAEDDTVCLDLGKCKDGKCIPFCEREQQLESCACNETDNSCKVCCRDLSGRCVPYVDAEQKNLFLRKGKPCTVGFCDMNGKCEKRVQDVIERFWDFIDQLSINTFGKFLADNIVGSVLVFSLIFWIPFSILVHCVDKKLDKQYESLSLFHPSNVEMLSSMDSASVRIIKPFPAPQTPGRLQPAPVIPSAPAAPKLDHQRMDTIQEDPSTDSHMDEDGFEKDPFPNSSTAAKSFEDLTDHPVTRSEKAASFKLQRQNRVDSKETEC

[17] = inhibition of ADAM10 peptide cleavage – biochemical, FRET peptide substrate, recombinant human ADAM10, selectivity assay for ADAM17 exosite inhibitor project, dose response (AID 743259);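 note: ADAM10 enzyme cleaving a FRET peptide substrate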
[18] = biological target: T5, Rac GTPase-activating protein 1 (Homo sapiens, UniProt Q9H0H5); assay: blockers of MgcRacGAP-driven Rac1 GTP hydrolysis – biochemical, ADP Hunter fluorescence, primary and confirmatory, confirmation (AID 624330); type: functional
T5 sequence (Q9H0H5 whole entry): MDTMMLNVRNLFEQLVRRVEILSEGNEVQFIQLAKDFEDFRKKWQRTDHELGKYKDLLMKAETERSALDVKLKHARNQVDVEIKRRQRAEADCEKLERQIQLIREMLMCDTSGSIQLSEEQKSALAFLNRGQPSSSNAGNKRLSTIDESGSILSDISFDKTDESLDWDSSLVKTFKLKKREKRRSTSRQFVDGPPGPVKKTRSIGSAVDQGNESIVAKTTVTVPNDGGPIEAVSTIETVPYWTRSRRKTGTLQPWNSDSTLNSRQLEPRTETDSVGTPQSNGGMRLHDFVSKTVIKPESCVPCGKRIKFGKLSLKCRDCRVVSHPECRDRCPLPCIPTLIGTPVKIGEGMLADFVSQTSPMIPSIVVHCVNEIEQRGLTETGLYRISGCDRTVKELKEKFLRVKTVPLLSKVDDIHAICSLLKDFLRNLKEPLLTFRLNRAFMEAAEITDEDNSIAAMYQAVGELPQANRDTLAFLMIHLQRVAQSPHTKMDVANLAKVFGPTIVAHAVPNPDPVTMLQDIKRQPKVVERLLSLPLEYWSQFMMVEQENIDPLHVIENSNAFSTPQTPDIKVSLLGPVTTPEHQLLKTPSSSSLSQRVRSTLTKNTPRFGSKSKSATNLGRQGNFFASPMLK

Aminopeptidase N = biological target: T6, Aminopeptidase N (Plasmodium falciparum FcB1/Columbia, UniProt O96935); assay: malaria alanyl aminopeptidase activity blockers – biochemical, fluorogenic H-Leu-NHMec substrate, 1536-well (AID 1445); design: species or system Plasmodium falciparum 3D7, 3D7
T6 sequence (O96935 whole entry): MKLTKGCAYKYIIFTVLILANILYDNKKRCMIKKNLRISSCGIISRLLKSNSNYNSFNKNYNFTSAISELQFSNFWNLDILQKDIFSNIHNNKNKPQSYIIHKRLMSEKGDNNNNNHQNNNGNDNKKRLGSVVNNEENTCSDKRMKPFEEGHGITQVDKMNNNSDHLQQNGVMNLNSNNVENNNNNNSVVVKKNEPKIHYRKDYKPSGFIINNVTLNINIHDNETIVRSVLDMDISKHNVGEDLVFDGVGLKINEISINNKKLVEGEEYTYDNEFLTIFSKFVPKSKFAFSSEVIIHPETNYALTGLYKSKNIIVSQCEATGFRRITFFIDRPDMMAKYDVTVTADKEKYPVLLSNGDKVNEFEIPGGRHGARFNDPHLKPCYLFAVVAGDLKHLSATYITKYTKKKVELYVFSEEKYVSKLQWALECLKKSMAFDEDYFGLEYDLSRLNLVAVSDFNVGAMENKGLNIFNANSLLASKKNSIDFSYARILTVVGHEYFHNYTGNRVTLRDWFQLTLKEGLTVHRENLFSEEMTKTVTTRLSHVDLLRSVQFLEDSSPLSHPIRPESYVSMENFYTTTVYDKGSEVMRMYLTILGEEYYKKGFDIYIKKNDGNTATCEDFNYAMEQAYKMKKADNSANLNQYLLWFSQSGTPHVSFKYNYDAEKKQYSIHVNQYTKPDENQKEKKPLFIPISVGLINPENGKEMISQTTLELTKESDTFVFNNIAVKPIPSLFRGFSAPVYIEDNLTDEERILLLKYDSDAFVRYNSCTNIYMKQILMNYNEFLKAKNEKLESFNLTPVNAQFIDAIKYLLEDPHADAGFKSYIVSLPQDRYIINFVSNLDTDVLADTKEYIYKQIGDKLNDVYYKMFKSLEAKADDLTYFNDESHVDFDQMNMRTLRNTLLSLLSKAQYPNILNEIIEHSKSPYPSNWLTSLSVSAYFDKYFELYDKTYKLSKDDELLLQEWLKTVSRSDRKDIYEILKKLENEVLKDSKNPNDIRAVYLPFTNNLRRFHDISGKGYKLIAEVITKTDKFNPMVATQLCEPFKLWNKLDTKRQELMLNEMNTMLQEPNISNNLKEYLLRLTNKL

Compound: O=S(=O)(c1ccccc1F)N1CC[C@H]2[C@H](CO)Nc3ccc(C4=CCCCC4)cc3[C@H]21
AC50 (Paired box protein Pax-8): 6.12 µM (active) | AC50 [1]: 32.9 µM (active) | AC50 [2]: 18.4 µM (active) | AC50 [3]: 26.7 µM (active)

Compound: CSc1ccc(CN2CCN(Cc3ccc([N+](=O)[O-])cc3)CC2)cc1
EC50 [4]: < 0.1 µM (active) | EC50 [5]: > 60 µM (inconclusive) | EC50 (cells): 0.135 µM (active)

Compound: O=C(OCc1ccccc1)c1cccnc1 [BENZYL NICOTINATE]
IC50 [6]: > 20 µM (inactive) | IC50 [7]: > 20 µM (inactive) | IC50 [8]: > 20 µM (inactive) | IC50 [9]: > 20 µM (inactive) | IC50 [10]: > 20 µM (inactive) | IC50 [11]: > 20 µM (inactive)

Compound: C=C(Cl)CSC(=S)N(CC)CC [SULFALLATE]
AC50 (Cytochrome P450 3A4): 10 µM (inconclusive)

Compound: O=C(Nc1ccncc1)Nc1ccc(Cl)cc1Cl
EC50 [4]: < 0.1 µM (active) | EC50 [5]: > 60 µM (not active) | EC50 (cells): 0.079 µM (active)

Compound: Cc1cc(-c2ccc(N)c(C)c2)ccc1N [ORTHOTOLIDINE]
IC50 [18]: 12.2 µM (active) | AC50 (Cytochrome P450 3A4): 20 µM (inconclusive)

Compound: COC(=O)C/C=C/C(C)C(OCc1cccc(-c2ccccc2)c1)C1CCCCC1 (configuration not stated)
AC50 (Cytochrome P450 3A4): 3.98 µM (inconclusive)

Now from value to compound, other results behind:

IC50 (Estrogen receptor): 17.1 µM (active)
Compound: Cc1csc2nc(CCNS(=O)(=O)c3ccc4c(c3)OCCO4)cn12

Ki (fMet-Leu-Phe receptor): 32.9 µM (inactive)
Compound: COc1ccc(-n2c(Cc3cccn3C)nnc2SCC(=O)Nc2ccc(Cl)cc2)cc1

IC50 (Estrogen receptor): 25.9 µM (active)
Compound: NC(=O)c1c(NC(=O)c2cccs2)sc2c1CCCCCC2

IC50 [12]: 41 µM (not active) | IC50 [13]: 9.05 µM (active) | EC50 [14]: > 53 µM (inactive) | IC50 [15]: 20 µM (active) | IC50 [16]: > 69.5 µM (inactive)
Compound: COc1cccc(CNc2ccc([N+](=O)[O-])cc2C)c1
IC50 [17]: 27.4 µM (inactive)

Ki (fMet-Leu-Phe receptor): 8.5 µM (active)
Compound: CC(C)CN(CC(C)C)C(=O)CS(=O)(=O)Cc1ccccc1

Ki (fMet-Leu-Phe receptor): 19.4 µM (inactive)
Compound: COc1ccccc1Oc1c(C)oc2cc(OC(=O)c3ccco3)ccc2c1=O

IC50 (Aminopeptidase N): 68.9 µM (active)
Compound: CC(=O)Nc1cccc(NC(=O)C2CCCN2C(=O)Nc2cccc(F)c2)c1 (configuration not stated)
